Source: the NIST ThermoML archive (doi:10.1016/j.fluid.2010.03.010)

Settings: Liquid, Vibrating tube method

CCCCn1cc[n+](C)c1.N#CN=C=[N-] [1-butyl-3-methylimidazolium dicyanamide]
Settings | mass density [kg/m3]
293.15 K, 100 kPa | 1064.4
293.15 K, 101.33 kPa | 1063.73
293.15 K, 250 kPa | 1064.4
293.15 K, 500 kPa | 1064.5
293.15 K, 1000 kPa | 1064.7
293.15 K, 2000 kPa | 1065.1
293.15 K, 4990 kPa | 1066.2
293.15 K, 10010 kPa | 1068.2
293.15 K, 15000 kPa | 1070
293.15 K, 20000 kPa | 1071.9
293.15 K, 25000 kPa | 1073.6
293.15 K, 30000 kPa | 1075.4
293.15 K, 35000 kPa | 1077.1
293.15 K, 40000 kPa | 1078.9
293.15 K, 45000 kPa | 1080.5
293.15 K, 50000 kPa | 1082.2
293.15 K, 55000 kPa | 1083.8
293.15 K, 60000 kPa | 1085.4
294.15 K, 101.33 kPa | 1063.09
295.15 K, 101.33 kPa | 1062.45
296.15 K, 101.33 kPa | 1061.81
297.15 K, 101.33 kPa | 1061.17
298.15 K, 101.33 kPa | 1060.53
299.15 K, 101.33 kPa | 1059.89
300.15 K, 101.33 kPa | 1059.26
301.15 K, 101.33 kPa | 1058.62
302.15 K, 101.33 kPa | 1057.99
303.15 K, 100 kPa | 1057.9
303.15 K, 101.33 kPa | 1057.35
303.15 K, 250 kPa | 1057.9
303.15 K, 500 kPa | 1058
303.15 K, 1000 kPa | 1058.2
303.15 K, 2000 kPa | 1058.6
303.15 K, 4990 kPa | 1059.8
303.15 K, 10000 kPa | 1061.8
303.15 K, 14990 kPa | 1063.6
303.15 K, 20010 kPa | 1065.5
303.15 K, 25000 kPa | 1067.4
303.15 K, 30000 kPa | 1069.2
303.15 K, 34990 kPa | 1070.9
303.15 K, 40000 kPa | 1072.7
303.15 K, 45000 kPa | 1074.4
303.15 K, 50000 kPa | 1076.1
303.15 K, 55000 kPa | 1077.8
303.15 K, 60000 kPa | 1079.4
304.15 K, 101.33 kPa | 1056.72
305.15 K, 101.33 kPa | 1056.09
306.15 K, 101.33 kPa | 1055.45
307.15 K, 101.33 kPa | 1054.82
308.15 K, 101.33 kPa | 1054.19
309.15 K, 101.33 kPa | 1053.56
310.15 K, 101.33 kPa | 1052.93
311.15 K, 101.33 kPa | 1052.31
312.15 K, 101.33 kPa | 1051.68
313.15 K, 100 kPa | 1051.5
313.15 K, 101.33 kPa | 1051.05
313.15 K, 250 kPa | 1051.5
313.15 K, 500 kPa | 1051.6
313.15 K, 1000 kPa | 1051.8
313.15 K, 2000 kPa | 1052.3
313.15 K, 4990 kPa | 1053.4
313.15 K, 10000 kPa | 1055.5
313.15 K, 14990 kPa | 1057.4
313.15 K, 20010 kPa | 1059.4
313.15 K, 25000 kPa | 1061.2
313.15 K, 30000 kPa | 1063.1
313.15 K, 35000 kPa | 1064.9
313.15 K, 40010 kPa | 1066.7
313.15 K, 45000 kPa | 1068.4
313.15 K, 50000 kPa | 1070.2
313.15 K, 55010 kPa | 1071.9
313.15 K, 60000 kPa | 1073.6
314.15 K, 101.33 kPa | 1050.43
315.15 K, 101.33 kPa | 1049.8
316.15 K, 101.33 kPa | 1049.18
317.15 K, 101.33 kPa | 1048.56
318.15 K, 101.33 kPa | 1047.94
319.15 K, 101.33 kPa | 1047.32
320.15 K, 101.33 kPa | 1046.7
321.15 K, 101.33 kPa | 1046.08
322.15 K, 101.33 kPa | 1045.46
323.15 K, 100 kPa | 1045.2
323.15 K, 101.33 kPa | 1044.84
323.15 K, 250 kPa | 1045.3
323.15 K, 500 kPa | 1045.4
323.15 K, 1000 kPa | 1045.6
323.15 K, 2010 kPa | 1046
323.15 K, 4990 kPa | 1047.3
323.15 K, 10010 kPa | 1049.3
323.15 K, 14990 kPa | 1051.3
323.15 K, 20010 kPa | 1053.3
323.15 K, 25000 kPa | 1055.2
323.15 K, 30010 kPa | 1057.1
323.15 K, 34990 kPa | 1058.9
323.15 K, 40000 kPa | 1060.8
323.15 K, 45000 kPa | 1062.6
323.15 K, 50000 kPa | 1064.4
323.15 K, 55000 kPa | 1066.1
323.15 K, 60000 kPa | 1067.8
324.15 K, 101.33 kPa | 1044.22
325.15 K, 101.33 kPa | 1043.61
326.15 K, 101.33 kPa | 1042.99
327.15 K, 101.33 kPa | 1042.37
328.15 K, 101.33 kPa | 1041.76
329.15 K, 101.33 kPa | 1041.14
330.15 K, 101.33 kPa | 1040.53
331.15 K, 101.33 kPa | 1039.92
332.15 K, 101.33 kPa | 1039.3
333.15 K, 100 kPa | 1039
333.15 K, 101.33 kPa | 1038.69
333.15 K, 250 kPa | 1039.1
333.15 K, 500 kPa | 1039.2
333.15 K, 1000 kPa | 1039.4
333.15 K, 2000 kPa | 1039.9
333.15 K, 4990 kPa | 1041.1
333.15 K, 10000 kPa | 1043.2
333.15 K, 15000 kPa | 1045.2
333.15 K, 20000 kPa | 1047.3
333.15 K, 25000 kPa | 1049.2
333.15 K, 30000 kPa | 1051.3
333.15 K, 34990 kPa | 1053.1
333.15 K, 40000 kPa | 1055
333.15 K, 45010 kPa | 1056.8
333.15 K, 50000 kPa | 1058.6
333.15 K, 55000 kPa | 1060.4
333.15 K, 60000 kPa | 1062.2
334.15 K, 101.33 kPa | 1038.08
335.15 K, 101.33 kPa | 1037.47
336.15 K, 101.33 kPa | 1036.86
337.15 K, 101.33 kPa | 1036.25
338.15 K, 101.33 kPa | 1035.64
339.15 K, 101.33 kPa | 1035.03
340.15 K, 101.33 kPa | 1034.42
341.15 K, 101.33 kPa | 1033.82
342.15 K, 101.33 kPa | 1033.21
343.15 K, 100 kPa | 1032.9
343.15 K, 101.33 kPa | 1032.61
343.15 K, 250 kPa | 1033
343.15 K, 500 kPa | 1033.1
343.15 K, 1000 kPa | 1033.3
343.15 K, 2000 kPa | 1033.7
343.15 K, 4990 kPa | 1035
343.15 K, 10010 kPa | 1037.2
343.15 K, 15000 kPa | 1039.2
343.15 K, 20010 kPa | 1041.4
343.15 K, 25000 kPa | 1043.3
343.15 K, 30000 kPa | 1045.4
343.15 K, 35010 kPa | 1047.3
343.15 K, 40000 kPa | 1049.3
343.15 K, 45000 kPa | 1051.1
343.15 K, 50000 kPa | 1053
343.15 K, 55000 kPa | 1054.7
343.15 K, 60000 kPa | 1056.6
344.15 K, 101.33 kPa | 1032
345.15 K, 101.33 kPa | 1031.4
346.15 K, 101.33 kPa | 1030.79
347.15 K, 101.33 kPa | 1030.19
348.15 K, 101.33 kPa | 1029.59
349.15 K, 101.33 kPa | 1028.98
350.15 K, 101.33 kPa | 1028.38
351.15 K, 101.33 kPa | 1027.78
352.15 K, 101.33 kPa | 1027.18
353.15 K, 100 kPa | 1026.8
353.15 K, 101.33 kPa | 1026.58
353.15 K, 250 kPa | 1026.9
353.15 K, 500 kPa | 1027
353.15 K, 1000 kPa | 1027.2
353.15 K, 2000 kPa | 1027.7
353.15 K, 5000 kPa | 1029
353.15 K, 10000 kPa | 1031.3
353.15 K, 15000 kPa | 1033.4
353.15 K, 20000 kPa | 1035.5
353.15 K, 25000 kPa | 1037.5
353.15 K, 30010 kPa | 1039.6
353.15 K, 35000 kPa | 1041.6
353.15 K, 40000 kPa | 1043.6
353.15 K, 45000 kPa | 1045.4
353.15 K, 50000 kPa | 1047.4
353.15 K, 55000 kPa | 1049.2
353.15 K, 60000 kPa | 1051
354.15 K, 101.33 kPa | 1025.98
355.15 K, 101.33 kPa | 1025.38
356.15 K, 101.33 kPa | 1024.79
357.15 K, 101.33 kPa | 1024.19
358.15 K, 101.33 kPa | 1023.59
359.15 K, 101.33 kPa | 1022.99
360.15 K, 101.33 kPa | 1022.4
361.15 K, 101.33 kPa | 1021.8
362.15 K, 101.33 kPa | 1021.21
363.15 K, 100 kPa | 1020.8
363.15 K, 101.33 kPa | 1020.61
363.15 K, 250 kPa | 1020.9
363.15 K, 500 kPa | 1021
363.15 K, 1000 kPa | 1021.3
363.15 K, 2000 kPa | 1021.7
363.15 K, 4990 kPa | 1023.1
363.15 K, 10000 kPa | 1025.4
363.15 K, 14990 kPa | 1027.6
363.15 K, 20010 kPa | 1029.8
363.15 K, 25010 kPa | 1031.8
363.15 K, 30000 kPa | 1033.9
363.15 K, 35000 kPa | 1035.9
363.15 K, 40000 kPa | 1038
363.15 K, 45000 kPa | 1039.9
363.15 K, 50000 kPa | 1041.8
363.15 K, 55000 kPa | 1043.7
363.15 K, 60000 kPa | 1045.6
373.15 K, 100 kPa | 1014.9
373.15 K, 250 kPa | 1015
373.15 K, 500 kPa | 1015.1
373.15 K, 1000 kPa | 1015.4
373.15 K, 2000 kPa | 1015.8
373.15 K, 4990 kPa | 1017.2
373.15 K, 10000 kPa | 1019.5
373.15 K, 15000 kPa | 1021.8
373.15 K, 20000 kPa | 1024
373.15 K, 25000 kPa | 1026.2
373.15 K, 30000 kPa | 1028.3
373.15 K, 35000 kPa | 1030.3
373.15 K, 40000 kPa | 1032.4
373.15 K, 45000 kPa | 1034.4
373.15 K, 50000 kPa | 1036.4
373.15 K, 55000 kPa | 1038.3
373.15 K, 60000 kPa | 1040.2
393.15 K, 100 kPa | 1003.2
393.15 K, 250 kPa | 1003.3
393.15 K, 500 kPa | 1003.4
393.15 K, 1000 kPa | 1003.7
393.15 K, 2000 kPa | 1004.1
393.15 K, 4990 kPa | 1005.6
393.15 K, 10010 kPa | 1008.1
393.15 K, 15000 kPa | 1010.4
393.15 K, 20010 kPa | 1012.8
393.15 K, 25000 kPa | 1015
393.15 K, 30000 kPa | 1017.2
393.15 K, 35000 kPa | 1019.4
393.15 K, 40000 kPa | 1021.6
393.15 K, 45000 kPa | 1023.6
393.15 K, 50000 kPa | 1025.7
393.15 K, 55000 kPa | 1027.7
393.15 K, 60000 kPa | 1029.6
